Laboratory results published in patent publication US20100119595A1, “Monounsaturated fatty acids and perhydrocyclopentanophenanthrene nucleus combination molecules, and their precursors, and the use of all of these as weight-loss agents” (priority 2001, published 2010).

Experiments:
[1] = Rat study of 2 hydroxyestrone oleate (Example 12); assay type: in vivo, Osborne Mendle rats; conditions: rats, oral gavage 21 days, 10, 5, 3.33 or 2.5 micromoles/kg
Experimental: Osborne Mendle rats are selected as the study subjects due to their propensity to gain fat when fed a high fat diet. An initial measurement of body weight is performed on each rat. The rats are placed individually in appropriate cages and allowed an ad libitum diet of standard rat chow and water for a 10-day period. During this 10-day period the rats are gavaged daily with 0.1 cc volume of sunflower oil to allow them to become comfortable with being handled and receiving the gavage tube (it takes about 10 days for this acclimation to occur, and is important so that the animals are not stressed by the gavage). Daily measurements include the following: • 1. Weight • 2. Weight of food consumed • 3. Spillage • 4. Water consumed, both volume and weight The rats remain confined and are denied out-of-cage activity or exercise for the duration of the experiment other than normal daily activity confined to the cage. This initial 10 day period establishes a pattern and average of weight gain, to acclimate the animals to the gavage procedure, and determine the average food and water consumption for each rat. […]
At the end of the study, rats are anesthetized then sacrificed via guillotine. […] Weight of the uterus is determined. […]

[2] = system: MCF-7 human breast cancer cell line; experiment: MCF-7 human breast cancer cell line test; assay type: cell-based; conditions: MCF-7 human breast cancer cells
Description: The practical use of any compound given to humans for the treatment of obesity require, of course, that the compound not only be effective, but able to pass the FDA requirements and be approved as a drug suitable for humans. […] One test used to determine reactivity with human breast cancer cells is the “MCF-7 human breast cancer cell line test”. The lower the concentration of drug required to produce agonist activity, the more potential there is for problems with cancer causing &/or promotion in humans A comfortable level in the pharmaceutical industry would be a reactivity in the micromolar range. In the case of oleyl estrone, agonist activity begins at […]; with estrone eicosenoate, agonist activity begins at a ten times greater concentration of 1.0 nanomolar. This low concentration of agonist activity mitigates the possibility that these compounds would gain FDA approval for either drug.

SMILES | body weight &/or body fat [1] | food consumption [1] | concentration at which agonist activity begins [2]
CCCCCCCC/C=C\CCCCCCCC(=O)Oc1cc2c(cc1O)[C@H]1CC[C@]3(C)C(=O)CC[C@H]3[C@@H]1CC2 [2HOE, 2 hydroxyestrone oleate] | reduction of body weight &/or body fat | reduction in food consumption | 
CCCCCCCC/C=C\CCCCCCCCCC(=O)Oc1ccc2c(c1)CC[C@@H]1[C@@H]2CC[C@]2(C)C(=O)CC[C@@H]12 [EE, estrone eicosenoate] |  |  | 1.0 nM
